Results published in patent publication US10881653B2, “Tricyclic compounds and their use in the treatment of cancer” (The United States of America, as represented by the …, priority 2015, dated 2021).
Where a name gives a salt, the structure may show the parent alone.

Assays:
NCI/ADR-RES = assay: Cell growth inhibition GI50; assay type: cell-based; details: Homo sapiens, Ovarian Cancer
Method: (§1) Cell lines were plated 2000 cells/well in 96-well black optical plates in the presence of 10% FBS media containing 25 nM selenite. The following day cells were treated with various concentrations of the compound of Example 1 (0.1% DMSO final) and incubated for 72 hrs. After the incubation Cell-Quanti Blue reagent was added to each well and incubated for additional 3 hrs. Fluorescence was read ex:530 nm/em:590 nm, and percent of viability was determined using DMSO vehicle and no cell (blank) controls.
(§2) Further results obtained in similar experiments were as indicated below (GI50 refers to concentration of compound yielding 50% growth inhibition; E denotes an exponent to the base 10).

SF-295 = assay: Cell growth inhibition GI50; assay type: cell-based; details: Homo sapiens, CNS Cancer
Method: as §1, §2

SW-620 = assay: Cell growth inhibition GI50; assay type: cell-based; details: Homo sapiens, Colon Cancer
Method: as §1, §2

COLO 205 = assay: Cell growth inhibition GI50; assay type: cell-based; details: Homo sapiens, Colon Cancer
Method: as §1, §2

786-0 = assay: Cell growth inhibition GI50; assay type: cell-based; details: Homo sapiens, Renal Cancer
Method: as §1, §2

IGROV1 = assay: Cell growth inhibition GI50; assay type: cell-based; details: Homo sapiens, IGROV-1, Ovarian Cancer
Method: as §1, §2

KM12 = assay: Cell growth inhibition GI50; assay type: cell-based; details: Homo sapiens, Colon Cancer
Method: as §1, §2

A498 = assay: Cell growth inhibition GI50; assay type: cell-based; details: Homo sapiens, Renal Cancer
Method: as §1, §2

RXF 393 = assay: Cell growth inhibition GI50; assay type: cell-based; details: Homo sapiens, Renal Cancer
Method: as §1, §2

M14 = assay: Cell growth inhibition GI50; assay type: cell-based; details: Homo sapiens, Melanoma
Method: as §1, §2

UACC-257 = assay: Cell growth inhibition GI50; assay type: cell-based; details: Homo sapiens, Melanoma
Method: as §1, §2

BT-549 = assay: Cell growth inhibition GI50; assay type: cell-based; details: Homo sapiens, Breast Cancer
Method: as §1, §2

HOP-62 = assay: Cell growth inhibition GI50; assay type: cell-based; details: Homo sapiens, Non-Small Cell Lung Cancer
Method: as §1, §2

SNB-19 = assay: Cell growth inhibition GI50; assay type: cell-based; details: Homo sapiens, CNS Cancer
Method: as §1, §2

T-47D = assay: Cell growth inhibition GI50; assay type: cell-based; details: Homo sapiens, T47D, Breast Cancer
Method: as §1, §2

NCI-H23 = assay: Cell growth inhibition GI50; assay type: cell-based; details: Homo sapiens, Non-Small Cell Lung Cancer
Method: as §1, §2

ACHN = assay: Cell growth inhibition GI50; assay type: cell-based; details: Homo sapiens, Renal Cancer
Method: as §1, §2

MDA-MB-231/ATCC = assay: Cell growth inhibition GI50; assay type: cell-based; details: Homo sapiens, Breast Cancer
Method: as §1, §2

OVCAR-5 = assay: Cell growth inhibition GI50; assay type: cell-based; details: Homo sapiens, Ovarian Cancer
Method: as §1, §2

NCI-H460 = assay: Cell growth inhibition GI50; assay type: cell-based; details: Homo sapiens, Non-Small Cell Lung Cancer
Method: as §1, §2

SK-OV-3 = assay: Cell growth inhibition GI50; assay type: cell-based; details: Homo sapiens, Ovarian Cancer
Method: as §1, §2

MOLT-4 = assay: Cell growth inhibition GI50; assay type: cell-based; details: Homo sapiens, Leukemia
Method: as §1, §2

SF-539 = assay: Cell growth inhibition GI50; assay type: cell-based; details: Homo sapiens, CNS Cancer
Method: as §1, §2

PC-3 = assay: Cell growth inhibition GI50; assay type: cell-based; details: Homo sapiens, Prostate Cancer
Method: as §1, §2

SNB-75 = assay: Cell growth inhibition GI50; assay type: cell-based; details: Homo sapiens, CNS Cancer
Method: as §1, §2

HCC-2998 = assay: Cell growth inhibition GI50; assay type: cell-based; details: Homo sapiens, Colon Cancer
Method: as §1, §2

CAKI-1 = assay: Cell growth inhibition GI50; assay type: cell-based; details: Homo sapiens, Renal Cancer
Method: as §1, §2

MCF7 = assay: Cell growth inhibition GI50; assay type: cell-based; details: Homo sapiens, Breast Cancer
Method: as §1, §2

FaDu cells = details: mouse, in vivo, 15 mg/kg
Method: Fox Chase male severe combined immunodeficiency (SCID, Charles River, #250) mice were inoculated with 1×10^6 FaDu cells in PBS at a pre-shaved region located at the anterior lateral thoracic wall. After 13 days of growth, tumors were caliper measured and treatments were initiated. Mice were injected with 15 mg/kg of the compound of Example 1, or vehicle a total of nine times in a five-day span via i.v. tail injection. Upon the final dose, injections were performed subcutaneously (s.c.) due to pronounced hematomas at the tail injection site. Mouse health status was monitored daily, weight was measured, and tumor volume was recorded from caliper measurements. […] Tumor growth was normalized to day 0 caliper measurements, and treatment with the compound of Example 1 (N=6, p<0.01) was compared to vehicle (N=4) using a repeated measures ANOVA with a Dunnett's multiple comparison post test.

O=C1C=C[C@H]2[C@@H]3C(=O)N(c4ccccc4)C(=O)[C@@H]3[C@@H]1N2Cc1ccccc1 (relative stereo) [Example 1, exo-11-Benzyl-4-phenyl-4,11-diazatricyclo[5.3.1.0^2,6]undec-9-ene-3,5,8-trione Trifluoroacetate]
GI50 (NCI/ADR-RES): 2550 nM
GI50 (SF-295): 6.41 µM
GI50 (SW-620): 1860 nM
GI50 (COLO 205): 5.47 µM
GI50 (786-0): 1690 nM
GI50 (IGROV1): 4.81 µM
GI50 (KM12): 2560 nM
GI50 (A498): 8.57 µM
GI50 (RXF 393): 2420 nM
GI50 (M14): 2600 nM
GI50 (UACC-257): 3.22 µM
GI50 (BT-549): 3.45 µM
GI50 (HOP-62): 1380 nM
GI50 (SNB-19): 6.04 µM
GI50 (T-47D): 4.92 µM
GI50 (NCI-H23): 5.37 µM
GI50 (ACHN): 3.36 µM
GI50 (MDA-MB-231/ATCC): 5.45 µM
GI50 (OVCAR-5): 6.75 µM
GI50 (NCI-H460): 3.49 µM
GI50 (SK-OV-3): 13.2 µM
GI50 (MOLT-4): 1720 nM
GI50 (SF-539): 1660 nM
GI50 (PC-3): 4.68 µM
GI50 (SNB-75): 4.19 µM
GI50 (HCC-2998): 7.94 µM
GI50 (CAKI-1): 4.09 µM
GI50 (MCF7): 3.19 µM
Signs of general or systemic toxic effects (FaDu cells): no overt signs of general or systemic toxic effects in normal cells or tissues
